Measurements published in patent US7192746B2, “α-Isomaltosyltransferase, process for producing the same and use thereof” (Kabushiki Kaisha Hayashibara Seibutsu Kagaku Kenkyujo, priority 2000, dated 2007).

Key:
Assay type in all cases: biochemical
[1] = system: α-isomaltosyl-transferring enzyme from Arthrobacter ramosus S1; assay: Specificity to transferring acceptor; set-up: key: −: no saccharide transferred product was formed; ±: a saccharide-transferred product formed in an amount of less than one percent to the total sugars; +: a saccharide-transferred product was formed in an amount of over one percent but below 10% to the total sugars; ++: a saccharide-transferred product was formed in an amount of over 10% to the total sugars; conditions: panose as saccharide donor, 10 units/g substrate, 3.2% (w/v), 30° C., pH 6.0, 24 hours
Outline: (§1)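 Candidate acceptor saccharides mixed with panose donor at equal concentration, 10 units/g substrate enzyme, total saccharide 3.2% (w/v), reacted 24 h at 30 °C, pH 6.0. Transfer product formation scored positive/negative by GLC (mono-/disaccharides) or HPLC (tri- and higher).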

[2] = system: α-isomaltosyl-transferring enzyme from Arthrobacter globiformis A19; assay: Specificity to transferring acceptor; set-up: key: −: no saccharide transferred product was formed; ±: a saccharide-transferred product formed in an amount of less than one percent to the total sugars; +: a saccharide-transferred product was formed in an amount of over one percent but below 10% to the total sugars; ++: a saccharide-transferred product was formed in an amount of over 10% to the total sugars; conditions: partially purified enzyme, panose as saccharide donor, 10 units/g substrate, 3.2% (w/v), 30° C., pH 6.0, 24 hours
Outline: as §1

[3] = system: α-isomaltosyl-transferring enzyme from Bacillus globisporus C11; assay: Specificity to transferring acceptor; set-up: key: −: no saccharide transferred product was formed; ±: a saccharide-transferred product formed in an amount of less than one percent to the total sugars; +: a saccharide-transferred product was formed in an amount of over one percent but below 10% to the total sugars; ++: a saccharide-transferred product was formed in an amount of over 10% to the total sugars; conditions: panose as saccharide donor, 10 units/g substrate, 3.2% (w/v), 30° C., pH 6.0, 24 hours
Outline: as §1

[4] = system: α-isomaltosyl-transferring enzyme from Bacillus globisporus C9; assay: Specificity to transferring acceptor; set-up: key: −: no saccharide transferred product was formed; ±: a saccharide-transferred product formed in an amount of less than one percent to the total sugars; +: a saccharide-transferred product was formed in an amount of over one percent but below 10% to the total sugars; ++: a saccharide-transferred product was formed in an amount of over 10% to the total sugars; conditions: panose as saccharide donor, 10 units/g substrate, 3.2% (w/v), 30° C., pH 6.0, 24 hours
Outline: as §1

[5] = system: α-isomaltosyl-transferring enzyme from Bacillus globisporus N75; assay: Specificity to transferring acceptor; set-up: key: −: no saccharide transferred product was formed; ±: a saccharide-transferred product formed in an amount of less than one percent to the total sugars; +: a saccharide-transferred product was formed in an amount of over one percent but below 10% to the total sugars; ++: a saccharide-transferred product was formed in an amount of over 10% to the total sugars; conditions: panose as saccharide donor, 10 units/g substrate, 3.2% (w/v), 30° C., pH 6.0, 24 hours
Outline: as §1

[6] = system: α-isomaltosyl-transferring enzyme from Arthrobacter ramosus S1; assay: Action on saccharides (substrates, TLC); set-up: key: −: there was found no substrate change before and after the enzymatic reaction; +: there were found both the reduction of substrate and the formation of cyclotetrasaccharide after the enzymatic reaction; conditions: 2 units/g substrate, 2% (w/v) substrate, 30° C., pH 6.0, 24 hours
Description: (§2) To examine the saccharides in the supernatant, they were separated from the supernatant by silica gel thin-layer chromatography (abbreviated as “TLC” hereinafter) using, as a developer, a mixture solution of n-butanol, pyridine, and water (=6:4:1), and, as a thin-layer plate, “[…] 60”, an aluminum plate (20×20 cm) for TLC commercialized by […]. The coloration of both the separated total sugars by the sulfuric acid-methanol method and the reducing saccharides by the diphenylamine-aniline method detected a non-reducing saccharide at a position with an Rf value of about 0.31, which was positive on the former detection method but negative on the latter detection method.
(§3) It was tested whether saccharides can be used as substrates for the α-isomaltosyl-transferring enzyme. For the purpose, a solution of maltose, maltotriose, maltotetraose, maltopentaose, maltohexaose, maltoheptaose, isomaltose, isomaltotriose, panose, isomaltosylmaltose, isopanose, α,α-trehalose, kojibiose, nigerose, α,β-trehalose, cellobiose, gentibiose, maltitol, maltotriitol, lactose, sucrose, α-cyclodextrin, β-cyclodextrin, γ-cyclodextrin, soluble starch, pullulan, or dextran was prepared. To each of the above solutions was added two units/g substrate of a purified specimen of either α-isomaltosyl-transferring enzyme from Bacillus globisporus C9 obtained by the method in Experiment 4, Bacillus globisporus C11 obtained by the method in Experiment 7, Bacillus globisporus N75 obtained by the method in Experiment 11, or Arthrobacter ramosus S1 obtained by the method in Experiment 15, or a partially purified α-isomaltosyl-transferring enzyme from Arthrobacter globiformis A19 obtained by the method in Experiment 15. The resulting each solution was adjusted to give a substrate concentration of 2% (w/v) and incubated at 30° C. and pH 6.0 for 24 hours. The enzyme solutions before and after the enzymatic reactions were respectively analyzed on TLC as disclosed in Experiment 1 to confirm whether the enzymes acted on these substrates.

[7] = system: α-isomaltosyl-transferring enzyme from Arthrobacter globiformis A19; assay: Action on saccharides (substrates, TLC); set-up: key: −: there was found no substrate change before and after the enzymatic reaction; +: there were found both the reduction of substrate and the formation of cyclotetrasaccharide after the enzymatic reaction; conditions: partially purified enzyme, 2 units/g substrate, 2% (w/v) substrate, 30° C., pH 6.0, 24 hours
Description: as §2, §3

[8] = system: α-isomaltosyl-transferring enzyme from Bacillus globisporus C11; assay: Action on saccharides (substrates, TLC); set-up: key: −: there was found no substrate change before and after the enzymatic reaction; +: there were found both the reduction of substrate and the formation of cyclotetrasaccharide after the enzymatic reaction; conditions: 2 units/g substrate, 2% (w/v) substrate, 30° C., pH 6.0, 24 hours
Description: as §2, §3

[9] = system: α-isomaltosyl-transferring enzyme from Bacillus globisporus C9; assay: Action on saccharides (substrates, TLC); set-up: key: −: there was found no substrate change before and after the enzymatic reaction; +: there were found both the reduction of substrate and the formation of cyclotetrasaccharide after the enzymatic reaction; conditions: 2 units/g substrate, 2% (w/v) substrate, 30° C., pH 6.0, 24 hours
Description: as §2, §3

[10] = system: α-isomaltosyl-transferring enzyme from Bacillus globisporus N75; assay: Action on saccharides (substrates, TLC); set-up: key: −: there was found no substrate change before and after the enzymatic reaction; +: there were found both the reduction of substrate and the formation of cyclotetrasaccharide after the enzymatic reaction; conditions: 2 units/g substrate, 2% (w/v) substrate, 30° C., pH 6.0, 24 hours
Description: as §2, §3

Structure (SMILES)	Enzymatic action for forming cyclotetrasaccharide, Enzyme of Strain S1 [6]	Enzymatic action for forming cyclotetrasaccharide, Enzyme of Strain A19 [7]	Enzymatic action for forming cyclotetrasaccharide, Enzyme of Strain C11 [8]	Enzymatic action for forming cyclotetrasaccharide, Enzyme of Strain C9 [9]	Enzymatic action for forming cyclotetrasaccharide, Enzyme of Strain N75 [10]	Product of transferring reaction, Enzyme of Strain S1 [1]	Product of transferring reaction, Enzyme of Stain A19 [2]	Product of transferring reaction, Enzyme of Strain C11 [3]	Product of transferring reaction, Enzyme of Strain C9 [4]	Product of transferring reaction, Enzyme of Strain N75 [5]
O=C[C@H](O)[C@@H](O)[C@H](O[C@@H]1O[C@H](CO)[C@@H](O)[C@H](O)[C@H]1O)[C@H](O)CO [Cellobiose, cellobiose]	−	−	−	−	−	+ (a saccharide-transferred product was formed in an amount of over one percent but below 10% to the total sugars)	+ (a saccharide-transferred product was formed in an amount of over one percent but below 10% to the total sugars)	+ (a saccharide-transferred product was formed in an amount of over one percent but below 10% to the total sugars)	+ (a saccharide-transferred product was formed in an amount of over one percent but below 10% to the total sugars)	+ (a saccharide-transferred product was formed in an amount of over one percent but below 10% to the total sugars)
OC[C@H]1O[C@@H]2O[C@H]3[C@H](O)[C@@H](O)[C@@H](O[C@H]4[C@H](O)[C@@H](O)[C@@H](O[C@H]5[C@H](O)[C@@H](O)[C@@H](O[C@H]6[C@H](O)[C@@H](O)[C@@H](O[C@H]7[C@H](O)[C@@H](O)[C@@H](O[C@H]8[C@H](O)[C@@H](O)[C@@H](O[C@H]1[C@H](O)[C@H]2O)O[C@@H]8CO)O[C@@H]7CO)O[C@@H]6CO)O[C@@H]5CO)O[C@@H]4CO)O[C@@H]3CO [β-Cyclodextrin, β-cyclodextrin]	−	−	−	−	−	−	−	−	−	−
OC[C@H]1O[C@H](OC[C@H]2O[C@H](OC[C@H]3OC(O)[C@H](O)[C@@H](O)[C@@H]3O)[C@H](O)[C@@H](O)[C@@H]2O)[C@H](O)[C@@H](O)[C@@H]1O (some centres unmarked) [Isomaltotriose, isomaltotriose]	−	−	−	−	−	++ (a saccharide-transferred product was formed in an amount of over 10% to the total sugars)	+ (a saccharide-transferred product was formed in an amount of over one percent but below 10% to the total sugars)	+ (a saccharide-transferred product was formed in an amount of over one percent but below 10% to the total sugars)	+ (a saccharide-transferred product was formed in an amount of over one percent but below 10% to the total sugars)	+ (a saccharide-transferred product was formed in an amount of over one percent but below 10% to the total sugars)

More lines, main results first:

Enzymatic action for forming cyclotetrasaccharide, Enzyme of Strain S1 [6]	Enzymatic action for forming cyclotetrasaccharide, Enzyme of Strain A19 [7]	Enzymatic action for forming cyclotetrasaccharide, Enzyme of Strain C11 [8]	Enzymatic action for forming cyclotetrasaccharide, Enzyme of Strain C9 [9]	Enzymatic action for forming cyclotetrasaccharide, Enzyme of Strain N75 [10]	Structure (SMILES)	Product of transferring reaction, Enzyme of Strain S1 [1]	Product of transferring reaction, Enzyme of Stain A19 [2]	Product of transferring reaction, Enzyme of Strain C11 [3]	Product of transferring reaction, Enzyme of Strain C9 [4]	Product of transferring reaction, Enzyme of Strain N75 [5]
−	−	−	−	−	OC[C@H]1O[C@H](O[C@H]2O[C@H](CO)[C@@H](O)[C@H](O)[C@H]2O)[C@H](O)[C@@H](O)[C@@H]1O [α,α-Trehalose, α,α-trehalose]	+ (a saccharide-transferred product was formed in an amount of over one percent but below 10% to the total sugars)	+ (a saccharide-transferred product was formed in an amount of over one percent but below 10% to the total sugars)	+ (a saccharide-transferred product was formed in an amount of over one percent but below 10% to the total sugars)	+ (a saccharide-transferred product was formed in an amount of over one percent but below 10% to the total sugars)	+ (a saccharide-transferred product was formed in an amount of over one percent but below 10% to the total sugars)
−	−	−	−	−	OC[C@H]1O[C@@H](OC[C@H]2OC(O)[C@H](O)[C@@H](O)[C@@H]2O)[C@H](O)[C@@H](O)[C@@H]1O (some centres unmarked) [Gentibiose, gentibiose]	+ (a saccharide-transferred product was formed in an amount of over one percent but below 10% to the total sugars)	+ (a saccharide-transferred product was formed in an amount of over one percent but below 10% to the total sugars)	++ (a saccharide-transferred product was formed in an amount of over 10% to the total sugars)	++ (a saccharide-transferred product was formed in an amount of over 10% to the total sugars)	++ (a saccharide-transferred product was formed in an amount of over 10% to the total sugars)
